In ChEMBL document CHEMBL2034937, “Novel 3-Oxazolidinedione-6-aryl-pyridinones as Potent, Selective, and Orally Active EP3 Receptor Antagonists” (ACS Med Chem Lett, 2010):
The source made the active and inactive calls. No cut-off for these calls is given here.

How the values were obtained:
[1] = Antagonist activity at dog EP3 receptor expressed in human U2OS cells co-expressing Gqi5 assessed as inhibition of PGE2-induced response after 24 hrs by FLIPR assay; assay type: functional, cell-based, Canis lupus familiaris
Rattus norvegicus [2] = test: Inhibition of GR63799-induced decrease in bladder capacity in conscious spontaneously hypertensive overactive bladder rat model at 0.3 mg/kg, id; assay type: functional, organism-based; design: dose 0.3 mg/kg; conditions: Urinary bladder
Rattus norvegicus [3] = test: Inhibition of saline-induced bladder rhythmic contraction in anesthetized iv dosed Sprague-Dawley rat model; assay type: functional, organism-based
Rattus norvegicus [4] = test: Inhibition of GR63799-induced decrease in bladder capacity in conscious spontaneously hypertensive overactive bladder rat model at 30 mg/kg, id; assay type: functional, organism-based; design: dose 30 mg/kg; conditions: Urinary bladder
Rattus norvegicus [5] = test: Inhibition of GR63799-induced decrease in bladder capacity in conscious spontaneously hypertensive overactive bladder rat model at 3 mg/kg, id; assay type: functional, organism-based; design: dose 3 mg/kg; conditions: Urinary bladder
Rattus norvegicus [6] = test: Inhibition of acetic acid-induced decrease in bladder capacity in conscious spontaneously hypertensive overactive bladder rat model at 30 mg/kg, id; assay type: functional, organism-based; design: dose 30 mg/kg; conditions: Urinary bladder
Rattus norvegicus [7] = test: Inhibition of PGE2-induced decrease in bladder capacity in conscious spontaneously hypertensive overactive bladder rat model at 30 mg/kg, id; assay type: functional, organism-based; design: dose 30 mg/kg; conditions: Urinary bladder
[8] = target: T1, Prostaglandin E2 receptor EP3 subtype (Rattus norvegicus, UniProt P34980); test: Antagonist activity at rat EP3 receptor expressed in human U2OS cells co-expressing Gqi5 assessed as inhibition of PGE2-induced response after 24 hrs by FLIPR assay; assay type: functional, cell-based
T1 sequence (P34980 whole entry): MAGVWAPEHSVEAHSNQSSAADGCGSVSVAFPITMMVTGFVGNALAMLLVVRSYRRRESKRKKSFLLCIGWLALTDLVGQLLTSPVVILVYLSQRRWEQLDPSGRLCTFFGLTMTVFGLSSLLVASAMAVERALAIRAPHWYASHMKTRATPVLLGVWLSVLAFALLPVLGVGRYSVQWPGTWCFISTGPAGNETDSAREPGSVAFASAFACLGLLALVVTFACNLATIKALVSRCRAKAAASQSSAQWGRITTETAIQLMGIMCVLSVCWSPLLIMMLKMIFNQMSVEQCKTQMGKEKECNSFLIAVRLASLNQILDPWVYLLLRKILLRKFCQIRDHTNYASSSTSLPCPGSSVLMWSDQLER

[9] = Clearance in Sprague-Dawley rat at 1 mg/kg, iv and 2 mg/kg, po; assay type: ADME, organism-based; conditions: in vivo
[10] = target: T2, Prostaglandin E2 receptor EP1 subtype (Homo sapiens, UniProt P34995); test: Antagonist activity at EP1 receptor in human U2OS cells expressing Gqi5 assessed as inhibition of PGE2-induced response after 24 hrs by FLIPR assay; assay type: functional, cell-based
T2 sequence (P34995 whole entry): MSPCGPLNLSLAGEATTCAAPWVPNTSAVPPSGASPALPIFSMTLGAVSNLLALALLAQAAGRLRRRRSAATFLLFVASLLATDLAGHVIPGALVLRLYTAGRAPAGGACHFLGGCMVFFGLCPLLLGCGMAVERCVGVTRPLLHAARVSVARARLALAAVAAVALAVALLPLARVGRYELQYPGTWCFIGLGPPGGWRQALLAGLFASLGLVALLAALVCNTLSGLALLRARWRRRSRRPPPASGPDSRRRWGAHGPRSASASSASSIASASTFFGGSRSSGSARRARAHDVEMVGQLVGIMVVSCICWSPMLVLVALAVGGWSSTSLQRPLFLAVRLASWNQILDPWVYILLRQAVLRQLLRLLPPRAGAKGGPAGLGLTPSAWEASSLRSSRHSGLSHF

Rattus norvegicus [11] = test: Dose-normalized AUC in Sprague-Dawley rat at 2 mg/kg, po; assay type: ADME, organism-based; design: dose 2 mg/kg, route oral; conditions: in vivo
[12] = Half life in Sprague-Dawley rat at 1 mg/kg, iv; assay type: ADME, organism-based; design: dose 1 mg/kg, route intravenous; conditions: in vivo
[13] = Oral bioavailability in Sprague-Dawley rat at 2 mg/kg; assay type: ADME, organism-based; conditions: in vivo
[14] = target: T3, Prostaglandin E2 receptor EP3 subtype (Homo sapiens, UniProt P43115); test: Antagonist activity at human EP3c receptor expressed in human U2OS cells assessed as inhibition of PGE2-induced calcium mobilization after 24 hrs by FLIPR assay; assay type: functional, cell-based
T3 sequence (P43115 whole entry): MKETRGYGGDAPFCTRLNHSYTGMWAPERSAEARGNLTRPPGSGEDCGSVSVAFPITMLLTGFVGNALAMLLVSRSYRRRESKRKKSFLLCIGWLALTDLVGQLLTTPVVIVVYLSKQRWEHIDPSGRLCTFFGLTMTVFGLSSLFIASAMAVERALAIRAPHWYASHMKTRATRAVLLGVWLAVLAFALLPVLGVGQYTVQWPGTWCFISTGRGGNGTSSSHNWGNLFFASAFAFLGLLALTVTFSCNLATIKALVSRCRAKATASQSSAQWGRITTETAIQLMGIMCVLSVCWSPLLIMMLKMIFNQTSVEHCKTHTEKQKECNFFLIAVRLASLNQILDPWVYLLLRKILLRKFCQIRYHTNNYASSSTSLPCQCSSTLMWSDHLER

[15] = Drug metabolism in rat liver S9 fraction assessed as NADPH-dependent glutathione conjugate level at 10 uM after 30 mins by LC-MS/MS analysis; assay type: ADME, subcellular; conditions: s9, 0.5 h
[16] = Drug metabolism in rat liver S9 fraction assessed as glutathione conjugate level at 10 uM after 30 mins by HPLC in absence of NADPH; assay type: ADME, subcellular; conditions: s9, 0.5 h
[17] = Drug metabolism in human liver S9 fraction assessed as glutathione conjugate level at 10 uM after 30 mins by HPLC in absence of NADPH; assay type: ADME, subcellular; conditions: s9, 0.5 h
[18] = Drug metabolism in human liver S9 fraction assessed as NADPH-dependent glutathione conjugate level at 10 uM after 30 mins by LC-MS/MS analysis; assay type: ADME, subcellular; conditions: s9, 0.5 h

SMILES	pKi [1]	inhibition (Rattus norvegicus [2])	inhibition (Rattus norvegicus [3])	inhibition (Rattus norvegicus [4])	inhibition (Rattus norvegicus [5])	inhibition (Rattus norvegicus [6])	inhibition (Rattus norvegicus [7])	Ki [8] [nM]	clearance [9] [mL/min/kg]	Ki [10] [nM]	AUC/dose (Rattus norvegicus [11]) [µg·h/mL/mg/kg]	half-life [12] [h]	bioavailability [13] [%]	Ki [14] [nM]	Drug metabolism [15]	Drug metabolism [16]	Drug metabolism [17]	Drug metabolism [18]
CC(C)C1(c2ccc(-c3ccc4ccccc4c3)[nH]c2=O)OC(=O)NC1=O (centres undefined)	7.7	inactive	Dose-dependent effect	Active	Active	Active	Active											
O=C1NC(=O)C(c2ccc(-c3ccc4ccccc4c3)[nH]c2=O)O1 (centres undefined)								316	31	> 5010	0.17	5.1	32	200				
Cc1ccc(-c2ccc(C3(C(C)C)OC(=O)NC3=O)c(=O)[nH]2)cc1C (centres undefined)								12.6	6.3		1.8	2.8	68	20	Not Active	Not Active	Not Active	Not Active
